# US5510332A, “Process to inhibit binding of the integrin α4 62 1 to VCAM-1 or fibronectin and linear peptides therefor” (priority 1994, dated 1996)
# Where a SMILES comes first, the peptide text is derived from it. Where no end group is shown, it is not given here.
# Assays:
# [1] = target: T1, binding of α4 β1 integrin to VCAM-1 (Homo sapiens, UniProt P05556+P13612); assay: Cell-protein assay: calcein-labelled Ramos cells binding to VCAM-mouse IgG fusion protein on magnetic beads; assay type: cell-based; details: for peptide concentration at which binding of α4 β1 to VCAM-1 is significantly inhibited: less than about 100, assay format not stated
# T1 construct: endogenous in cells; host or cells: Ramos (human B-cell line) for endogenous α4β1; the VCAM-mouse IgG fusion was made in house, secreted from transfected COS cells and captured on goat anti-mouse IgG Dynal beads
# T1 sequence (P13612 34-1032): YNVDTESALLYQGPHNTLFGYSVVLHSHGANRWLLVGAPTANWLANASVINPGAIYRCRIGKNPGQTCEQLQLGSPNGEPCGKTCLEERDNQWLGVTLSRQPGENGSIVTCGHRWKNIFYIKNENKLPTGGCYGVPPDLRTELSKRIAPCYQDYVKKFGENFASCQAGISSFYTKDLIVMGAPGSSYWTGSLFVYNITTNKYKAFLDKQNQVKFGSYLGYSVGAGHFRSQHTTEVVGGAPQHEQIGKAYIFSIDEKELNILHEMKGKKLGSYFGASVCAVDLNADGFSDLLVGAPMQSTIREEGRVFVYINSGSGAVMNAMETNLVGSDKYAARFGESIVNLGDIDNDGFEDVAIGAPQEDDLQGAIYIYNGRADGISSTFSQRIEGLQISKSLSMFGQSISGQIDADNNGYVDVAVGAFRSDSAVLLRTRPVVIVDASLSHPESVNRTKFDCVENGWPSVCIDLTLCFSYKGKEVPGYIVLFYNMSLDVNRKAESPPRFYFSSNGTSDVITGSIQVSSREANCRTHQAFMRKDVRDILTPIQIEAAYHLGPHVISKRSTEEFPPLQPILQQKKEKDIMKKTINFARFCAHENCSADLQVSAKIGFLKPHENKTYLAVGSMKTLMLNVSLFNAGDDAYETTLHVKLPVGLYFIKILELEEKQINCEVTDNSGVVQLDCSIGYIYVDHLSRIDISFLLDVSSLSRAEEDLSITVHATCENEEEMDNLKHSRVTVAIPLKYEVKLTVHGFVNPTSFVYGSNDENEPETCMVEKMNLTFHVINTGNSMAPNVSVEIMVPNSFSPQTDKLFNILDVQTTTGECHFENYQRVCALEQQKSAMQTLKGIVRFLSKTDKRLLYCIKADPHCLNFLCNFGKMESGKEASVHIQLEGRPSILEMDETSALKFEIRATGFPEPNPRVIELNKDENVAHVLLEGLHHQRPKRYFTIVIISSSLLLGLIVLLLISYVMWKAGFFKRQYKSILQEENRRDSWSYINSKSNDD
# T1 sequence (P05556 21-798): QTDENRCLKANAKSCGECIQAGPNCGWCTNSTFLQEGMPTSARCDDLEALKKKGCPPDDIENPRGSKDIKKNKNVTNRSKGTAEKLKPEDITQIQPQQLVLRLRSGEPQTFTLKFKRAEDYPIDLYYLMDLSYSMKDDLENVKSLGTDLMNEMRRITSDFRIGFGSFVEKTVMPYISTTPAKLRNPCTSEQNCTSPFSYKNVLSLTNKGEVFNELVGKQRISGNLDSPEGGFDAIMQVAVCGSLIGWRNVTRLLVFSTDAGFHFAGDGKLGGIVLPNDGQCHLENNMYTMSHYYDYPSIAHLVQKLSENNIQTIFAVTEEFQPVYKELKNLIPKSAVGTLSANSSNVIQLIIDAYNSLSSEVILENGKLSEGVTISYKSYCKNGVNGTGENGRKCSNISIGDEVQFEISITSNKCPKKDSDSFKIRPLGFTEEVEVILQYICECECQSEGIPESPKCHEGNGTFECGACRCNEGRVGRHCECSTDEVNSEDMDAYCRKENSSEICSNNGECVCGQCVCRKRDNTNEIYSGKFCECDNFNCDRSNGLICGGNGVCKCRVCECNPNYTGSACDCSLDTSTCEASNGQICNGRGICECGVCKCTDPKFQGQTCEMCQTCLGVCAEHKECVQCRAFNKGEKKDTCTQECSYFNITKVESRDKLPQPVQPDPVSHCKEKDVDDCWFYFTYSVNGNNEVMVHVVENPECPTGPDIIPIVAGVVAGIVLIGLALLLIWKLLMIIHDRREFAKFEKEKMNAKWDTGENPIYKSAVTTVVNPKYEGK
# Text: The VCAM-1 binding assays involved assessing the ability of cells that express α4 β1 to bind cells expressing VCAM (cell-cell assay) or to bind purified VCAM protein (cell-protein assay). The integrin-expressing cell types used in these assays included the human B-cell line, Ramos, and the human promyelocytic line, HL-60. The cell-cell assay was used to compare the relative potency of peptides at a single dose. The cell-protein assay was used to generate dose response curves and determine IC50 values.
# An expression vector was designed such that a region of VCAM known to bind the integrin was-expressed as a fusion protein with mouse IgG. A cDNA containing the two N-terminal domains of human VCAM was generated by the polymerase chain reaction (PCR) from a full length VCAM cDNA. Similarly, a cDNA containing the hinge, CH2 and CH3 regions of mouse IgG2A was amplified by PCR from cDNA made from total RNA isolated from the hybridoma cell line 402C10. The VCAM cDNA was ligated to the mouse IgG cDNA and cloned into a mammalian expression vector. […] The media was collected and active protein was purified by immunoprecipitation using Dynal magnetic polystyrene beads coated with goat anti-mouse IgG. Following immunoprecipitation, the beads bound Ramos cells that expressed the integrin α4 β1.
# Ramos cells were fluorescently labeled with calcein AM (Molecular Probes) and resuspended in 1 ml of binding buffer (Hanks' balanced salt solution, pH 7.4, 1.0 mM CaCl2, 1.0 mM MgCl2 and 1.0 mM MnCl2). The beads (10 μl, 4×10^6 beads/ml) were placed in wells of a 96-well microtiter dish with 10 μl of peptide at various concentrations. The beads were incubated with 10 μl of labeled cells (10^7 cells/ml) for 10 min at room temperature. Following immobilization of the beads onto the plastic with a magnet, unbound cells were removed by washing three times with binding buffer. The remaining bound cells were lysed in 50 mM Tris, pH 7.4, 5.0 mM EDTA, 1.0% NP-40 and quantitated by fluorimetry using a Millipore Cytofluor 2350 fluorimeter. Dose response curves were calculated and IC50 values determined. Peptides having the amino acid residue sequences of SEQ ID NOs:8-102 were tested for their ability to inhibit the binding of α4 β1 integrin to VCAM-1.
# [2] = target: T2, binding of the integrin α4 β1 to VCAM (Homo sapiens, UniProt P05556+P13612); assay: Cell-cell assay: 35S-labelled Ramos cells binding to VCAM expressing CHO cells; assay type: cell-based; details: single concentration at which SEQ ID NO:9 gives approximately 50% inhibition of adhesion; SEQ ID NO:9 = 1.00; >2.00 indicates little or no inhibition of VCAM-α4 β1 binding
# T2 construct: endogenous in cells; host or cells: Ramos (human B-cell line) for endogenous α4β1; CHO cells stably transfected with human VCAM cDNA for the counter-receptor
# T2 sequence (P13612 34-1032): as the sequence (P13612 34-1032) above
# T2 sequence (P05556 21-798): as the sequence (P05556 21-798) above
# Text: The VCAM-1 binding assays involved assessing the ability of cells that express α4 β1 to bind cells expressing VCAM (cell-cell assay) or to bind purified VCAM protein (cell-protein assay). The integrin-expressing cell types used in these assays included the human B-cell line, Ramos, and the human promyelocytic line, HL-60. The cell-cell assay was used to compare the relative potency of peptides at a single dose. The cell-protein assay was used to generate dose response curves and determine IC50 values. A human VCAM cDNA was amplified by the polymerase chain reaction (PCR) from cDNA reverse transcribed from RNA isolated from human umbilical vein endothelial cells. The VCAM cDNA was ligated into a mammalian expression vector and electroporated into chinese hamster ovary (CHO) cells. Cells were grown in G418 selective media and clones expressing high levels of VCAM were selected by FACS analysis. VCAM expressing CHO cells and nontransfected CHO cells were plated in 48 well cluster dishes at a density of 50,000 cells/well 24 hour prior to assay. The dishes were washed with binding buffer (DMEM, 1% BSA, 1.0 mM MnCl2, 0.02% sodium azide, pH 7.4) immediately prior to assay. […] Unbound cells were removed by washing with binding buffer and the remaining bound cells were lysed with 50 mM Tris, pH 8.0, 150 mM NaCl, 1% SDS and transferred to scintillation vials for quantitation.
Compound,peptide concentration at which binding of α4 β1 to VCAM-1 is significantly inhibited [1],IC50 ([1]; independent cell-protein based assays),relative quantity of adhered cells in relationship to peptide SEQ ID NO:9 [2]
"CC(C)C[C@H](NC(=O)[C@@H](N)Cc1ccccc1)C(=O)N[C@@H](CC(=O)O)C(=O)N[C@H](C(N)=O)C(C)C [SEQ ID NO:25, Phe-Leu-Asp-Val-amide] (H-FLDV-NH2)",less than 100 μM,–,–
"EWLDV-NH2 [SEQ ID NO:13, Glu-Trp-Leu-Asp-Val-amide]",less than 100 μM,–,–
"EWLDV-OH [SEQ ID NO:14, Glu-Trp-Leu-Asp-Val-acid]",less than 100 μM,–,–
"GPEWLDVP-NH2 [SEQ ID NO:9, Gly-Pro-Glu-Trp-Leu-Asp-Val-Pro-amide]",–,30 µM,1.00
